Patent publication US20250114331A1, “CONCURRENT TARGETING OF ONCOGENIC PATHWAYS TO ENHANCE CHEMOTHERAPY AND IMMUNOTHERAPY” (THE JOHNS HOPKINS UNIVERSITY, priority 2021, published 2025)
“Also recorded” adds a separate entry of the source.

Experiments:
[1] = test system: H1299 and H1437 cells; assay: qRT-PCR of YAP1 and STAT3 pathway genes after drug treatment for 72 hours; type: cell-based, human
Protocol: qRT-PCR. The mRNA expression level of each gene was determined by qRT-PCR. […] We quantified the β-actin mRNA level to normalize the expression levels of the targeted genes. Each sample was tested in triplicate and run three times. Each graph shown in our figures indicates the average mRNA expression level of targeted genes compared with the β-actin expression level, with standard error of mean. To determine doses of these drugs that are effective for pathway inhibition, H1299 and H1437 cells were treated with verteporfin or S3I-201 for 72 hours.

[2] = test system: H1299 and H1437 cells; assay: Immunoblotting of YAP1, STAT3 and pSTAT3 after drug treatment; type: cell-based, human
Protocol: Western blotting. Cells were dissolved in RIPA buffer (Thermo Fisher Scientific) supplemented with proteinase inhibitor and phosphatase inhibitor cocktails (Roche, Mannheim, Germany). After total protein lysate was electrophoretically transferred onto PVDF membrane, the membrane was blocked with 5% skim milk in 0.05% TBS-Tween buffer and incubated at 4° C. overnight with a primary antibody specific to each protein. The membrane was then probed with an appropriate secondary antibody (Cell Signaling Technology, Danvers, USA). β-actin served as an endogenous control. The primary antibodies and dilution ratios were β-actin (Sigma-Aldrich; #A2228; 1:5000), NANOG (D73G4; Cell Signaling Technology; #4903; 1:1000), OCT4 (D705Z; Cell Signaling Technology; #75463; 1:500), SOX2 (EPR3131; Abcam, Cambridge, UK; #ab92494; 1:500), STAT3 (124H6; Cell Signaling Technology; #9139; 1:2000), pSTAT3 (D3A7; Cell Signaling Technology; #9145; 1:1000) and YAP1 (EP1674Y; Abcam, #ab52771; 1:2000).
To determine doses of these drugs that are effective for pathway inhibition, H1299 and H1437 cells were treated with verteporfin or S3I-201 for 72 hours.

[3] = test system: H1299 xenografts; assay: H1299 xenograft treatment; type: in vivo, NSG mice; details: verteporfin 50 mg/kg i.p. three times a week; S3I-201 5 mg/kg i.p. every day
Excerpt: (§1) For therapeutic experiments, 4- to 5-week-old NOD/SCID/IL2Ry−/− (NSG) mice were obtained from the Johns Hopkins Medical Institute's (Baltimore, MD) animal care facility. We injected H1299 cells (1×106) and H1437 cells (1×106), which were suspended in the mixture as described above, subcutaneously into both flanks. For the patient-derived xenograft (PDX) models, 13 PDX blocks (CTG0162, 0178, 0502, 0848, 1309, 1351, 1358, 1361, 1762, 1885, 2017, 2481, and 2708) were obtained from Champion Oncology. All these PDXs were established from primary lung adenocarcinoma tumors. The tumor tissues were cut into 4×2 mm pieces and implanted in the subcutaneous spaces of both flanks. When tumor volumes reached to 200+50 mm3, mice were randomly assigned to six experimental groups [control, chemo (cisplatin+gemcitabine), chemo+verteporfin, chemo+S3I-201, “all” (cisplatin+gemcitabine+verteporfin+S3I-201), and verteporfin+S3I-201] at 5 mice per group. Cisplatin (Sigma-Aldrich; #P4394), gemcitabine (Medkoo; #100410), S3I-201 (MedKoo; #202541), and verteporfin (Sigma-Aldrich; #1711461) were used to treat the mice. Cisplatin (2.5 mg/kg) and gemcitabine (120 mg/kg) were administrated via intraperitoneal injection once a week (22). […] Each tumor volume was measured every 3 days. Therapeutic efficacy was evaluated from percentage change of the tumor volume compared with the tumor size before treatment.

[4] = test system: MB49 derived xenograft; assay: MB49 derived xenograft treated with STAT3 inhibitor; type: in vivo, C57BL/6 mice; details: for expression of CSC associated markers and CXCLs in tumor tissues: qRT-PCR
Protocol: In vivo xenograft assay and treatment. For in vivo xenograft, cells were suspended in 100 μL of a 1:1 mixture of serum-free DMEM and Cultrex Stem Cell Qualified Reduced Growth Factor Basement Membrane Extract (Trevigen, Gaithersburg, USA), and then injected subcutaneously into the both flanks of C57BL/6 mice for MB49/UPPL595/BBN975 cells.
YAP1 induces immunosuppression partially through IL6/STAT3 signaling and STAT3 inhibition mimics the antitumor activity of YAP1 attenuation. The present inventors recently reported that YAP1 positively regulates IL6/STAT3 signaling (38) in LUAD.

[5] = test system: H1437 xenografts; assay: H1437 xenograft treatment; type: in vivo, NSG mice; details: verteporfin 50 mg/kg i.p. three times a week; S3I-201 5 mg/kg i.p. every day
Excerpt: as §1

[6] = test system: H1299, H1437 and A549 cells; assay: Apoptosis assay with cisplatin in YAP1-modified cells; type: cell-based, human; details: cisplatin 2 or 5 for 72 hours
Protocol: Apoptosis assay. Cells were incubated for 72 hours with CDDP (2 μM or 5 μM) or normal saline. Apoptosis assays were conducted using PE Annexin V Apoptosis Detection Kit with 7-AAD (BioLegend, San Diego, USA) according to manufacturer's protocol. Treated cells were analyzed by BD FACSCalibur flow cytometer (BD Biosciences, San Jose, USA).

[7] = test system: H1299, H1437 and A549 cells; assay: Cell viability assay with cisplatin in YAP1/STAT3-modified cells; type: cell-based, human
Protocol: Cell proliferation assay and viability assay. Cell proliferation and viability were evaluated using Cell Counting Kit-8 (Dojindo Molecular Technologies). For cell proliferation assay, after cells (5×10^3/well) were seeded into 96-well plates with RPMI1640 containing 2% FBS, the optical density of each well was measured every 24 hours for 4 days. We added […] of cell counting kit-8 solution to each well 2 hours before measuring the absorbance (17). For the cell viability assay, after cells were incubated for 48 hours (5×10^3/well), they were exposed to each respective therapeutic agent for 72 hours. Cell viability for each agent was defined as the ratio of absorbance values of the treated cells to control cells (i.e., pharmacologically untreated or genetically unmodified). Absorbance values (450-630 nm) were measured by a Spectra Max 250 96-well Plate Reader (Molecular Devices). Each sample was applied to six wells, and their average rate was calculated. The therapeutic agents used here (in vitro) were cisplatin (Sigma-Aldrich; #P4394), S3I-201 (Santa Cruz Biotechnology; #sc-204304; ref. 18), and verteporfin (MedKoo; #203120).

[8] = test system: pSTAT3; assay: Recombinant IL6 stimulation (Western blotting); type: cell-based, human; details: H1299 and H1437 YAP1-sh cells, 0.1, 1, or 10 ng/mL
Protocol: Recombinant IL6 stimulation and neutralization of IL6. For exogenous IL6 stimulation, 5×10^5 cells were seeded in 10-cm dishes. After 48 hours, human recombinant IL6 (0.1, 1, or 10 ng/mL) from PeproTech was added to the cells. They were harvested after 48-hour incubation. To neutralize the IL6, Human/Primate IL6 Antibody (R&D Systems) was administered. We cultured 5×10^5 cells in 10-cm dishes. After 48 hours, antibody (1 mg/mL) was added to the cells. They were then harvested after 24 or 48 hours. Protein expression of each sample was evaluated by Western blotting.

Molecule: Cc1ccc(S(=O)(=O)OCC(=O)Nc2ccc(C(=O)O)c(O)c2)cc1 [S3I-201]
- mRNA expression of STAT3 and its targeted genes NRP1 and PROS1 [1]: suppressed both STAT3 and its targeted genes; also recorded: inhibited mRNA expressions of not only NRP1 and PROS1 (STAT3-targeting genes) but also STAT3
- pSTAT3 expression [2]: suppressed pSTAT3 without affecting YAP1 or total STAT3 expressions; also recorded: suppressed pSTAT3 in a dose-dependent manner
- tumor growth [3]: inhibited growth
- infiltration of MDSCs (GR-1) and CD8+ T cells in the TME, IHC ([4]; mouse, in vivo): decreased infiltration of MDSCs (GR-1) and significantly more CD8+ T cells
- tumor growth ([4]; mouse, in vivo): significant regression of the tumor growth
- expression of CSC associated markers and CXCLs in tumor tissues ([4]; listed as STAT3 inhibitor): downregulate different CXCR2 associated ligands
- expression of CSC associated markers and CXCLs in tumor tissues ([4]; listed as STAT-3 inhibitor): significantly decreased expression of CSC associated markers and CXCLs
- tumor growth [5]: did not significantly affect tumor growth

Molecule: N.N.[Cl][Pt][Cl] [cisplatin]
- cells undergoing apoptosis ([6]; YAP1-LV cells versus control cells): lower fractions; also recorded: substantially less apoptosis
- cells undergoing apoptosis ([6]; YAP1-sh cells versus control cells): higher fractions of apoptotic cells; also recorded: greater percentages of cells undergoing apoptosis
- sensitivity to cisplatin (cell viability) ([7]; A549 YAP1-LV cells versus control cells, 72 hours): relatively resistant; also recorded: higher resistance
- sensitivity to cisplatin (cell viability) ([7]; A549 YAP1-LV/STAT3-si cells versus YAP1-LV/STAT3-Ctrl cells): restored cisplatin sensitivity
- sensitivity to cisplatin (cell viability) ([7]; H1299 and H1437 YAP1-sh cells versus control cells, 72 hours): increased sensitivities; also recorded: greater sensitivity
- sensitivity to cisplatin (cell viability) ([7]; YAP1-sh/STAT3-LV cells (H1299 and H1437) versus YAP1-sh/STAT3-Ctrl cells, 72 hours, 5 cisplatin): restored cell proliferation and cisplatin resistance; also recorded: less sensitivity
- sensitivity to cisplatin (cell viability) ([7]; YAP1-sh/STAT3-si cells (H1299 and H1437) versus single inhibition or control): greater sensitivity; also recorded: highest sensitivity

Molecule: IL6: human recombinant IL6 from PeproTech
- pSTAT3 level [8]: increased pSTAT3 expressions in a dose-dependent manner
- pSTAT3 level ([8]; listed as recombinant human IL6): increased pSTAT3 levels dose dependently
